According to patent publication US4001218A, “Penicillins” (Bayer Aktiengesellschaft, priority 1972, dated 1977):

Assays:
Staph. aureus 133 = type: cell-based, Staphylococcus aureus; conditions: for MIC: Staph. aureus 133, 24 hours, 37°C
E. coli A 261 = assay: MIC, test tube series dilution test, E. coli A 261; type: cell-based; conditions: 24 hours, 37°C
Proteus morg. 932 = assay: MIC, test tube series dilution test, Proteus morg. 932; type: cell-based; conditions: 24 hours, 37°C
E. coli 14 = type: cell-based; conditions: for MIC: E. coli 14, 24 hours, 37°C
Enterococcus 9790 = assay: MIC, test tube series dilution test, Enterococcus 9790; type: cell-based; conditions: 24 hours, 37°C
Psdm. aerug. F 41 = assay: MIC, test tube series dilution test, Psdm. aerug. F 41; type: cell-based, Pseudomonas aeruginosa
Proteus vulg. 1017 = type: cell-based, Proteus vulgaris; conditions: for MIC: Proteus 1017, 24 hours, 37°C
Klebsiella 63 = assay: MIC, test tube series dilution test, Klebsiella 63; type: cell-based; conditions: 24 hours' incubation

Compound | MIC (Staph. aureus 133) [U/ml] | MIC (E. coli A 261) [U/ml] | also measured
CC1(C)S[C@@H]2[C@H](NC(=O)[C@H](NC(=O)C=Cc3ccc([N+](=O)[O-])cc3)c3ccccc3)C(=O)N2[C@H]1C(=O)O [Example 54] | < 1 | > 256 | 
CC1(C)S[C@@H]2[C@H](NC(=O)[C@H](NC(=O)CSc3ccc(NC(=O)CC4C=CCC4)cc3)c3ccccc3)C(=O)N2[C@H]1C(=O)O (stereo partly drawn) [Example 62] |  | > 256 | 
CC1(C)S[C@@H]2[C@H](NC(=O)[C@H](NC(=O)c3cc(NC=O)cc(NC=O)c3)c3ccccc3)C(=O)N2[C@H]1C(=O)O [Example 71] | < 1 | > 256 | MIC (Proteus morg. 932): > 256 U/ml; MIC (E. coli 14): ~ 4 U/ml
CC(CC(=O)Nc1ccc(C(=O)N[C@@H](C(=O)N[C@@H]2C(=O)N3[C@@H]2SC(C)(C)[C@@H]3C(=O)O)c2ccccc2)cc1)N=[N+]=[N-] (stereo partly drawn) [Example 40] | < 1 | > 256 | 
CC1(C)S[C@@H]2[C@H](NC(=O)[C@H](NC(=O)CNC(=O)c3ccc(NC=O)cc3)c3ccccc3)C(=O)N2[C@H]1C(=O)O [Example 63] | < 1 | > 256 | MIC (Proteus morg. 932): > 256 U/ml; MIC (E. coli 14): ~ 1 U/ml; MIC (Enterococcus 9790): ~ 4 U/ml
CC1(C)S[C@@H]2[C@H](NC(=O)[C@H](NC(=O)c3ccc(NC(=O)CC4CC5CCC4C5)cc3)c3ccccc3)C(=O)N2[C@H]1C(=O)O (single isomer, unassigned) [Example 15, sodium D(-)-α-[4-(2-norbornylacetamido-benzoylamino)]-benzylpenicillin] | < 1 | > 256 | 
CC1(C)S[C@@H]2[C@H](NC(=O)[C@H](NC(=O)c3ccc(NC(=O)C4CCC4)cc3[N+](=O)[O-])c3ccccc3)C(=O)N2[C@H]1C(=O)O [Example 6, sodium D(-)-α-(4-cyclobutanecarbonylamino-2-nitro-benzoylamino)-benzylpenicillin] | < 1 | > 256 | 
CC1(C)S[C@@H]2[C@H](NC(=O)[C@H](NC(=O)CSc3ccc(NC(=O)C4CC4)cc3)c3ccccc3)C(=O)N2[C@H]1C(=O)O [Example 60] |  | > 256 | MIC (Psdm. aerug. F 41; Psdm. aerug. F 41, 24 hours, 37°C): ~ 256 U/ml; MIC (Proteus vulg. 1017): ~ 4 U/ml
CC1(C)S[C@@H]2[C@H](NC(=O)[C@H](NC(=O)CNC(=O)c3ccc(NC(=O)C4CCC4)cc3)c3ccccc3)C(=O)N2[C@H]1C(=O)O [Example 65] | < 1 | > 256 | MIC (Proteus morg. 932): > 256 U/ml
CC1(C)S[C@@H]2[C@H](NC(=O)[C@H](NC(=O)c3ccc(NC(=O)c4ccc(S(C)(=O)=O)cc4)cc3)c3ccccc3)C(=O)N2[C@H]1C(=O)O [Example 80, sodium D(-)-α-[4-(p-methylsulphonylbenzoylamino)-benzoylamino]-benzylpenicillin] |  |  | Activity against Staph. aureus 133 (minimum inhibitory concentration) (Staph. aureus 133; 24 hours' incubation): < 1 U/ml; Activity against E. coli 14 (minimum inhibitory concentration) (E. coli 14; 24 hours' incubation): 4-8 U/ml; Activity against Klebs. 63 (minimum inhibitory concentration) (Klebsiella 63): 32-64 U/ml; Activity against Psdm. aerug. F 41 (minimum inhibitory concentration) (Psdm. aerug. F 41; 24 hours' incubation): 32-64 U/ml; Activity against Proteus vulg. 1017 (minimum inhibitory concentration) (Proteus vulg. 1017; 24 hours' incubation): 128-256 U/ml
CC1(C)S[C@@H]2[C@H](NC(=O)[C@H](NC(=O)CNC(=O)c3ccc(N=[N+]=[N-])cc3)c3ccccc3)C(=O)N2[C@H]1C(=O)O [Example 68] | < 1 | > 256 | 
CC1(C)S[C@@H]2[C@H](NC(=O)[C@H](NC(=O)CNC(=O)c3ccc(NC(=O)C4=CCCCC4)cc3)c3ccccc3)C(=O)N2[C@H]1C(=O)O [Example 67] | < 1 |  | MIC (Proteus vulg. 1017): > 256 U/ml
CC1(C)S[C@@H]2[C@H](NC(=O)[C@H](NC(=O)c3cccc(NC(=O)C4CC4)c3)c3ccccc3)C(=O)N2[C@H]1C(=O)O [Example 51] | < 1 | > 256 | MIC (Proteus morg. 932): > 256 U/ml; MIC (E. coli 14): ~ 16 U/ml
Cc1cc(C(=O)N[C@@H](C(=O)N[C@@H]2C(=O)N3[C@@H]2SC(C)(C)[C@@H]3C(=O)O)c2ccccc2)ccc1N [Example 32, sodium D(-)-α-(4-amino-3-methyl-benzoylamino)-benzyl-penicillin] | < 1 | > 256 | 
CC1(C)S[C@@H]2[C@H](NC(=O)[C@H](NC(=O)c3ccc(NC(=O)c4ccc5c(c4)OCO5)cc3)c3ccccc3)C(=O)N2[C@H]1C(=O)O [Example 24] | < 1 | > 256 | 
CC1(C)S[C@@H]2[C@H](NC(=O)[C@H](NC(=O)C=Cc3ccc(NC(=O)C4CC4)cc3)c3ccccc3)C(=O)N2[C@H]1C(=O)O [Example 56] | < 1 | > 256 | 

Compound | MIC (Staph. aureus 133) [U/ml] | MIC (E. coli A 261) [U/ml] | also measured
CC1(C)S[C@@H]2[C@H](NC(=O)[C@H](NC(=O)c3cc(NC(=O)C4CC4)cc(NC(=O)C4CC4)c3)c3ccccc3)C(=O)N2[C@H]1C(=O)O [Example 72] | < 1 | > 256 | MIC (Proteus morg. 932): > 256 U/ml; MIC (Enterococcus 9790): ~ 16 U/ml
CC1(C)S[C@@H]2[C@H](NC(=O)[C@H](NC(=O)c3ccc(NC(=O)c4cc([N+](=O)[O-])cc([N+](=O)[O-])c4)cc3)c3ccccc3)C(=O)N2[C@H]1C(=O)O [Example 19] | < 1 | > 256 | MIC (E. coli 14): < 1 U/ml; MIC (Proteus vulg. 1017): ~ 16 U/ml
CC1(C)S[C@@H]2[C@H](NC(=O)[C@H](NC(=O)c3ccc(NC(=O)CCC4CCCCC4)cc3)c3ccccc3)C(=O)N2[C@H]1C(=O)O [Example 10, sodium D(-)-α-[4-(3-cyclohexanepropionylamino-benzoylamino)]-benzylpenicillin] | < 1 | > 256 | MIC (E. coli 14): < 1 U/ml; MIC (Enterococcus 9790): ~ 16 U/ml
CC1(C)S[C@@H]2[C@H](NC(=O)[C@H](NC(=O)c3ccc(NC(=O)c4ccc([N+](=O)[O-])cc4)cc3[N+](=O)[O-])c3ccccc3)C(=O)N2[C@H]1C(=O)O [Example 27, sodium D(-)-α-[4-(4-nitrobenzoylamino)-2-nitrobenzoylamino]-benzylpenicillin] | < 1 | > 256 | 
CC1(C)S[C@@H]2[C@H](NC(=O)[C@H](NC(=O)C=Cc3ccc(NC(=O)C4CCC4)cc3)c3ccccc3)C(=O)N2[C@H]1C(=O)O [Example 57] | < 1 | > 256 | MIC (E. coli 14): ~ 1 U/ml
CC1(C)S[C@@H]2[C@H](NC(=O)[C@H](NC(=O)c3ccc(NC(=O)CCC4CCCC4)cc3)c3ccccc3)C(=O)N2[C@H]1C(=O)O [Example 9, sodium D(-)-α-(4-[3-cyclopentylpropionylaminobenzoylamino)]-benzylpenicillin] | < 1 | > 256 | 
CC1(C)S[C@@H]2[C@H](NC(=O)[C@H](NC(=O)c3ccc(NC(=O)c4cccs4)cc3)c3ccccc3)C(=O)N2[C@H]1C(=O)O [Example 48] | < 1 |  | 
CC1(C)S[C@@H]2[C@H](NC(=O)[C@H](NC(=O)CNC(=O)c3ccc([N+](=O)[O-])cc3)c3ccccc3)C(=O)N2[C@H]1C(=O)O [Example 69] | < 1 | > 256 | 
CC1(C)S[C@@H]2[C@H](NC(=O)[C@H](NC(=O)c3cc(NC(=O)C4CCC4)cc(NC(=O)C4CCC4)c3)c3ccccc3)C(=O)N2[C@H]1C(=O)O [Example 73] | < 1 | > 256 | 
CC1(C)S[C@@H]2[C@H](NC(=O)[C@H](NC(=O)c3ccc(NC(=O)C4CC4)c([N+](=O)[O-])c3)c3ccccc3)C(=O)N2[C@H]1C(=O)O [Example 4, sodium D(-)-α-(4-cyclopropanecarbonylamino-3-nitro-benzoylamino)-benzylpenicillin] | < 1 | > 256 | MIC (Proteus morg. 932): > 256 U/ml
COc1cc(C(=O)Nc2ccc(SCC(=O)N[C@@H](C(=O)N[C@@H]3C(=O)N4[C@@H]3SC(C)(C)[C@@H]4C(=O)O)c3ccccc3)cc2)cc(OC)c1OC [Example 58] | < 1 |  | MIC (E. coli 14): ~ 16 U/ml; MIC (Proteus vulg. 1017): > 256 U/ml
CC1(C)S[C@@H]2[C@H](NC(=O)[C@H](NC(=O)C=Cc3ccc(NC=O)cc3)c3ccccc3)C(=O)N2[C@H]1C(=O)O [Example 55] | < 1 |  | MIC (Proteus vulg. 1017): > 256 U/ml
CC1(C)S[C@@H]2[C@H](NC(=O)[C@H](NC(=O)c3ccc(NC(=O)C4CC4)cc3[N+](=O)[O-])c3ccccc3)C(=O)N2[C@H]1C(=O)O [Example 3, sodium D(-)-α-(4-cyclopropanecarbonylamino-2-nitrobenzoylamino)-benzylpenicillin] |  | > 256 | 
Cc1cc(C(=O)N[C@@H](C(=O)N[C@@H]2C(=O)N3[C@@H]2SC(C)(C)[C@@H]3C(=O)O)c2ccccc2)ccc1[N+](=O)[O-] [Example 31, sodium D(-)-α-(4-nitro-3-methylbenzoylamino)-benzylpenicillin] | < 1 | > 256 | 
CC1(C)S[C@@H]2[C@H](NC(=O)[C@H](NC(=O)c3ccc(NC(=O)C4CCCCCC4)cc3)c3ccccc3)C(=O)N2[C@H]1C(=O)O [Example 13, sodium D(-)-α-(4-cycloheptanecarbonylamino-benzoylamino)-benzylpenicillin] | < 1 |  | MIC (E. coli 14): < 1 U/ml
CC1(C)S[C@@H]2[C@H](NC(=O)[C@H](NC(=O)c3ccc(NC(=O)C4CC4)c(NC(=O)C4CC4)c3)c3ccccc3)C(=O)N2[C@H]1C(=O)O [Example 75] | < 1 | > 256 | MIC (Proteus morg. 932): > 256 U/ml; MIC (Enterococcus 9790): ~ 16 U/ml
